{"source": "paper PMC7531004", "about": "“Discovery of gramicidin A analogues with altered activities by multidimensional screening of a one-bead-one-compound library” (Nature Communications, 2020)", "key": {"[1]": {"assay": "H+/Na+ transport assay of bead-derived peptides (one-point);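 note: relative to parent gramicidin A activity set to 1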", "assay_type": "biochemical", "design": "key: relative activity; mean of two control wells = 1.00", "conditions": "bead-derived peptide solution, EYPC/EYPG LUVs", "method_in_brief": "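Pyranine (1.0 mM)-loaded LUVs containing egg yolk phosphatidylglycerol were prepared by film hydration, sonication and extrusion, then mixed with diluted bead-derived peptide in 96-well format and vortexed 30 min at room temperature. Fluorescence was normalized between untreated LUVs (0%) and Triton X-100 lysis (100%).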"}, "[2]": {"conditions": "cell viability/%", "method_in_brief": "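Peptide stocks diluted 250× in growth medium; P388 cells 1 × 10^4 cells/mL final; 37 °C, 5% CO2, 92 h. WST-1 + 1-methoxy PMS, 4 h, A415. Output: % viability.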"}, "[3]": {"test_system": "Streptococcus pyogenes SSI-9", "assay": "Antibacterial activity assay of bead-derived peptides (three concentrations)", "assay_type": "cell-based", "design": "key: +++: inhibition by the 640-fold diluted peptide solution; ++: inhibition by the 160-fold diluted solution; +: inhibition by the 40-fold diluted solution; -: no inhibition", "conditions": "S. pyogenes, bead-derived peptide solution, three concentrations", "method_in_brief": "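Growth inhibition scored visually as precipitated bacteria after 37 °C, 18 h incubation. Streptococcus pyogenes SSI-9 inoculum of 2 × 10^5 CFU in Ca2+/Mg2+-adjusted Mueller Hinton broth plus 5% laked horse blood; peptides tested at three levels: stock, 4-fold and 16-fold DMSO dilutions.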"}}, "note": "Where a SMILES comes first, the peptide text is derived from it. [ ]: non-standard residue; d: D form. The star is where a group is joined. NHCH2CH2OH = OCCN*; For = O=C*", "data": [{"smiles": "CC(C)C[C@@H](NC(=O)[C@H](Cc1c[nH]c2ccccc12)NC(=O)[C@H](NC(=O)[C@H](Cc1c[nH]c2ccccc12)NC(=O)[C@@H](CC(C)C)NC(=O)[C@H](Cc1c[nH]c2ccccc12)NC(=O)[C@@H](CC(C)C)NC(=O)[C@@H](NC(=O)[C@H](NC(=O)[C@H](C)NC(=O)[C@H](NC(=O)[C@H](C)NC(=O)CNC(=O)[C@@H](NC=O)C(C)C)[C@H](C)O)C(C)C)C(C)C)C(C)C)C(=O)N[C@@H](Cc1c[nH]c2ccccc12)C(=O)NCCO", "note": "[compound 1509] (For-VGA[dT]A[dV]V[dL]W[dL]W[dV]W[dL]W-NHCH2CH2OH)", "values": [{"measurement": "H+/Na+ transport activity normalized against the value of 1 (1.00)", "setting": "[1]", "value": 1.10}, {"measurement": "viability", "setting": "[2]", "value": 100, "unit": "%"}, {"measurement": "antibacterial activity", "setting": "[3]", "value": "-"}]}, {"smiles": "CC(C)C[C@@H](NC(=O)[C@H](C)NC(=O)CNC(=O)[C@@H](NC=O)C(C)C)C(=O)N[C@@H](C)C(=O)N[C@@H](C(=O)N[C@H](C(=O)N[C@@H](C(=O)N[C@@H](Cc1c[nH]c2ccccc12)C(=O)N[C@@H](C(=O)N[C@@H](Cc1c[nH]c2ccccc12)C(=O)N[C@H](CC(C)C)C(=O)N[C@@H](Cc1c[nH]c2ccccc12)C(=O)N[C@H](CC(C)C)C(=O)N[C@@H](Cc1c[nH]c2ccccc12)C(=O)NCCO)C(C)C)C(C)C)C(C)C)[C@H](C)O", "note": "[compound 8755] (For-VGA[dL]A[dT]V[dV]W[dV]W[dL]W[dL]W-NHCH2CH2OH)", "values": [{"measurement": "H+/Na+ transport activity normalized against the value of 1 (1.00)", "setting": "[1]", "value": 1.10}, {"measurement": "viability", "setting": "[2]", "value": 67.3, "unit": "%"}, {"measurement": "antibacterial activity", "setting": "[3]", "value": "-"}]}, {"smiles": "CNC(=O)C[C@@H](NC(=O)[C@@H](NC(=O)[C@@H](CC(C)C)NC(=O)[C@H](C)NC(=O)[C@H](NC(=O)[C@H](C)NC(=O)CNC(=O)[C@@H](NC=O)C(C)C)C(C)C)C(C)C)C(=O)N[C@@H](Cc1c[nH]c2ccccc12)C(=O)N[C@@H](C(=O)N[C@@H](Cc1c[nH]c2ccccc12)C(=O)N[C@@H](C(=O)N[C@@H](Cc1c[nH]c2ccccc12)C(=O)N[C@H](CC(C)C)C(=O)N[C@@H](Cc1c[nH]c2ccccc12)C(=O)NCCO)C(C)C)C(C)C", "note": "[compound 5991] (For-VGA[dV]A[dL]V[dD](NHMe)W[dV]W[dV]W[dL]W-NHCH2CH2OH)", "values": [{"measurement": "H+/Na+ transport activity normalized against the value of 1 (1.00)", "setting": "[1]", "value": 1.00}, {"measurement": "viability", "setting": "[2]", "value": 94.7, "unit": "%"}, {"measurement": "antibacterial activity", "setting": "[3]", "value": "-"}]}, {"smiles": "CNC(=O)C[C@@H](NC(=O)[C@H](Cc1c[nH]c2ccccc12)NC(=O)[C@@H](CC(C)C)NC(=O)[C@H](Cc1c[nH]c2ccccc12)NC(=O)[C@@H](CC(C)C)NC(=O)[C@@H](NC(=O)[C@@H](CC(C)C)NC(=O)[C@H](C)NC(=O)[C@@H](CC(C)C)NC(=O)[C@H](C)NC(=O)CNC(=O)[C@@H](NC=O)C(C)C)C(C)C)C(=O)N[C@@H](Cc1c[nH]c2ccccc12)C(=O)N[C@@H](C(=O)N[C@@H](Cc1c[nH]c2ccccc12)C(=O)NCCO)[C@H](C)O", "note": "[compound 3773] (For-VGA[dL]A[dL]V[dL]W[dL]W[dD](NHMe)W[dT]W-NHCH2CH2OH)", "values": [{"measurement": "H+/Na+ transport activity normalized against the value of 1 (1.00)", "setting": "[1]", "value": 1.03}, {"measurement": "viability", "setting": "[2]", "value": 100, "unit": "%"}, {"measurement": "antibacterial activity", "setting": "[3]", "value": "-"}]}, {"smiles": "CC(C)C[C@@H](NC(=O)[C@H](C)NC(=O)CNC(=O)[C@@H](NC=O)C(C)C)C(=O)N[C@@H](C)C(=O)N[C@@H](C(=O)N[C@H](C(=O)N[C@@H](C(=O)N[C@@H](Cc1c[nH]c2ccccc12)C(=O)N[C@@H](C(=O)N[C@@H](Cc1c[nH]c2ccccc12)C(=O)N[C@H](CC(C)C)C(=O)N[C@@H](Cc1c[nH]c2ccccc12)C(=O)N[C@H](CC(C)C)C(=O)N[C@@H](Cc1c[nH]c2ccccc12)C(=O)NCCO)[C@H](C)O)C(C)C)C(C)C)C(C)C", "note": "[compound 10674] (For-VGA[dL]A[dV]V[dV]W[dT]W[dL]W[dL]W-NHCH2CH2OH)", "values": [{"measurement": "H+/Na+ transport activity normalized against the value of 1 (1.00)", "setting": "[1]", "value": 1.08}, {"measurement": "viability", "setting": "[2]", "value": 87.3, "unit": "%"}, {"measurement": "antibacterial activity", "setting": "[3]", "value": "+"}]}]}
